Measurements taken from PubChem BioAssay (NCI).
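All cell lines were grown in 96-well plates and treated with compound for 48 hours. Abbreviation: GI50, concentration required for 50% inhibition of growth. The concentration for full growth arrest is given as TGI.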

Columns and labels:
Assay in all cases: NCI anticancer screen, dose series, 48 h
[1] = tested on: EKVX NSCLC
[2] = tested on: UACC-62 melanoma
[3] = tested on: K-562 leukemia
[4] = tested on: SNB-19 CNS
[5] = tested on: HOP-92 NSCLC
[6] = tested on: RPMI-8226 leukemia
[7] = tested on: SF-295 CNS
[8] = tested on: IGROV1 ovarian
[9] = tested on: HOP-62 NSCLC
[10] = tested on: SR leukemia

| SMILES | GI50 [1] | TGI [1] | GI50 [2] | TGI [2] | GI50 [3] | TGI [3] | GI50 [4] | TGI [4] | GI50 [5] | TGI [5] | GI50 [6] | TGI [6] | GI50 [7] | TGI [7] | GI50 [8] | TGI [8] | GI50 [9] | TGI [9] | TGI [10] | GI50 [10] |
| --- | --- | --- | --- | --- | --- | --- | --- | --- | --- | --- | --- | --- | --- | --- | --- | --- | --- | --- | --- | --- |
| Cn1c2ccccc2c2c(Nc3ccccc3)c3ccccc3nc21 | 14.3 µM | 51.1 µM | 4.56 µM | 18.6 µM | 5.11 µM | > 100 µM | 11.5 µM | > 100 µM | 13.9 µM | 56.5 µM | 3.34 µM | 30.5 µM | 5.62 µM | 23.8 µM | 61.3 µM | > 100 µM | – | – | – | – |
| C=C(CN1CCN(c2ccc(Cl)cc2F)CC1)c1ccc(C(=O)Nc2ccccc2N)cc1 | 11.5 µM | > 100 µM | 2.42 µM | > 92.1 µM | 1.12 µM | > 100 µM | – | > 34.3 µM | 1.57 µM | > 27.4 µM | 0.628 µM | 3.21 µM | 3.16 µM | > 100 µM | 1.16 µM | 14.8 µM | 3.42 µM | 27.8 µM | – | – |
| O=CC[C@H]1C(=O)C[C@@H]2CCC[C@@H]21 | – | > 100 µM | – | > 100 µM | – | > 100 µM | – | > 100 µM | – | > 100 µM | – | > 100 µM | – | > 100 µM | – | > 100 µM | – | > 100 µM | – | – |
| CN(C)C(=N)c1ccccc1 | – | – | – | – | – | – | – | > 100 µM | – | > 100 µM | – | – | – | > 100 µM | – | – | – | > 100 µM | > 100 µM | – |
| CCN(CCO)CC1CCCC2CCCCC21 (stereo not drawn) | – | > 100 µM | – | > 100 µM | – | > 100 µM | – | > 100 µM | – | > 100 µM | – | > 100 µM | – | > 100 µM | – | > 100 µM | – | > 100 µM | – | – |
| Cn1cc(C2=C(c3cn(C)c4ncccc34)C(=O)NC2=O)c2ccccc21 | – | – | 11.7 µM | > 25 µM | 6.99 µM | > 25 µM | 11.2 µM | > 25 µM | 7.71 µM | > 22.9 µM | 9.04 µM | > 23.2 µM | 7.18 µM | > 25 µM | 15.5 µM | > 25 µM | 10.9 µM | > 25 µM | – | – |
| N#CCCN(CCC#N)c1ccc(/C=C2\N=C(c3cc([N+](=O)[O-])ccc3Cl)OC2=O)cc1 | – | > 100 µM | – | > 100 µM | – | 40.7 µM | – | > 100 µM | – | – | – | > 100 µM | – | > 100 µM | – | > 100 µM | – | 95.7 µM | 56.7 µM | – |
| COc1ccc2c(C3=C(c4cn(C)c5ccccc45)C(=O)NC3=O)cn(C)c2c1 | – | – | 0.137 µM | > 25 µM | 0.101 µM | > 25 µM | > 25 µM | > 25 µM | – | – | 0.11 µM | > 25 µM | 0.0649 µM | – | 0.147 µM | > 25 µM | 0.122 µM | > 25 µM | > 25 µM | 0.0717 µM |
| COc1ccc2c3c1C(=O)CCCC3CO2 (stereo not drawn) | – | – | – | > 100 µM | – | > 100 µM | – | > 100 µM | – | > 100 µM | – | > 100 µM | – | > 100 µM | – | > 100 µM | – | > 100 µM | – | – |
| Cc1nc2ccccc2c(=O)n1-c1ccccc1I | – | > 100 µM | – | > 100 µM | – | > 100 µM | – | > 100 µM | – | – | – | > 100 µM | – | > 100 µM | – | > 100 µM | – | > 100 µM | > 100 µM | – |
